# Experimental data published in ChEMBL document CHEMBL1201862, “PubChem BioAssay data set” (2004).
# Activity calls are given as the source filed them.
# What was measured:
# [1] = target: G-protein coupled receptor 35 (Homo sapiens, UniProt Q9HC97); test: GPR35 antagonists blocking zaprinast-driven arrestin recruitment, primary screen, imaging, U2OS, beta-arrestin-GFP, zaprinast agonist (AID 2058); type: functional;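 also: antagonist potency meaning inhibition of agonist-induced arrestin redistribution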
# [2] = target: T1, Voltage-gated N-type calcium channel alpha-1B subunit/Amyloid beta A4 precursor protein-binding family A member 1 (Homo sapiens, UniProt Q00975+Q02410); type: protein assay
# [3] = target: T1, Voltage-gated N-type calcium channel alpha-1B subunit/Amyloid beta A4 precursor protein-binding family A member 1; type: protein assay; remark: listed apart in the source
# [4] = target: T2, Rac GTPase-activating protein 1 (Homo sapiens, UniProt Q9H0H5); test: MgcRacGAP GTPase-activating activity inhibitors, confirmation, biochemical, ADP Hunter fluorescence, primary and confirmatory (AID 624330); type: functional
# T2 sequence (Q9H0H5 whole entry): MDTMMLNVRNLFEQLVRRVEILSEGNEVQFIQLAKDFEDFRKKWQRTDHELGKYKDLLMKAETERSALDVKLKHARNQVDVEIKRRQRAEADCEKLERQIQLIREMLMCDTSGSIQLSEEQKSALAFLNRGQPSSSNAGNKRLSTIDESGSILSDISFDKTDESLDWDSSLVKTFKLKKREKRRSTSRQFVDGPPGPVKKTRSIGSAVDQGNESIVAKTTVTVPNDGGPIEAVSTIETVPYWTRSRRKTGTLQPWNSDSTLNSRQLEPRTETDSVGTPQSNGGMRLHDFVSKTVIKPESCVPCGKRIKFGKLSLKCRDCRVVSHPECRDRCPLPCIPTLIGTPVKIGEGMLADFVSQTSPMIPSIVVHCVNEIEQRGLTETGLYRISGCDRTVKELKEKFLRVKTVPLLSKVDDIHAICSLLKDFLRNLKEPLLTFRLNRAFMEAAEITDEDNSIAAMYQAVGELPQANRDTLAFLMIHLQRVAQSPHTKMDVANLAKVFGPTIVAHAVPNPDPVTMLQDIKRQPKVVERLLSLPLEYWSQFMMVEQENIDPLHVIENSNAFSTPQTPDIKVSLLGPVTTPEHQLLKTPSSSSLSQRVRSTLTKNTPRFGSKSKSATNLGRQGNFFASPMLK
# [5] = target: T3, Cytochrome P450 1A2 (Homo sapiens, UniProt P05177);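 also: PubChem cytochrome P450 panel assay, CYP1A2 panel member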
# T3 sequence (P05177 whole entry): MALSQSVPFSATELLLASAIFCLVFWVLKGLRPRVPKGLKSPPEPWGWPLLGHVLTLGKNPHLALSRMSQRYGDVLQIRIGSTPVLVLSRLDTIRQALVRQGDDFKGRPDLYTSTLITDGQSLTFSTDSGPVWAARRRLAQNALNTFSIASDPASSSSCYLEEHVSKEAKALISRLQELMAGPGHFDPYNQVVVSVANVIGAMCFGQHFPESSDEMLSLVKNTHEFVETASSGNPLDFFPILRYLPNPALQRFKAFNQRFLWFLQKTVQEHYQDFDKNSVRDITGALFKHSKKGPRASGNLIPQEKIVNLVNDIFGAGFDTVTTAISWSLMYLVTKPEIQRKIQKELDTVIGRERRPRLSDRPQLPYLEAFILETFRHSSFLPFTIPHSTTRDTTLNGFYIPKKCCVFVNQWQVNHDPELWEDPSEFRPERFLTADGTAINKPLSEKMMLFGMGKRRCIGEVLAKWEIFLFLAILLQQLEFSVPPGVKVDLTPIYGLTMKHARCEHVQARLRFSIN
# [6] = target: Cytochrome P450 3A4 (Homo sapiens, UniProt P08684);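 also: CYP3A4 tested as one member of a cytochrome P450 panel screen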
# [7] = target: G-protein coupled receptor 55 (Homo sapiens, UniProt Q9Y2T6); test: GPR55 antagonists blocking LPI-driven arrestin recruitment, primary screen, imaging, U2OS, beta-arrestin-GFP, LPI agonist (AID 2013); type: functional;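 also: antagonist potency measured as reduced agonist-driven arrestin aggregation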
# [8] = target: Cytochrome P450 2C9 (Homo sapiens, UniProt P11712)
# [9] = target: Cytochrome P450 2D6 (Homo sapiens, UniProt P10635);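 also: CYP2D6 member of a cytochrome P450 panel assay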
# [10] = target: Eukaryotic translation initiation factor 4H (Homo sapiens, UniProt Q15056); test: eIF4H inhibition in translation initiation, SAR follow-up (AID 435011); type: functional
# [11] = target: Polyadenylate-binding protein 1 (Homo sapiens, UniProt P11940); test: PABP inhibition in translation initiation, SAR follow-up (AID 435018); type: functional
# [12] = HEp-2 cell cytotoxicity, dose response, cytotoxicity control for RSV inhibitor project, HTS (AID 2410); type: functional; conditions: human respiratory syncytial virus
# [13] = target: T4, CAAX prenyl protease 2 (Homo sapiens, UniProt Q9Y256); test: human Rce1 protease inhibitors, dose response, biochemical, yeast membranes, quenched-peptide fluorescence, cherry-pick (AID 588849)
# T4 sequence (Q9Y256 whole entry): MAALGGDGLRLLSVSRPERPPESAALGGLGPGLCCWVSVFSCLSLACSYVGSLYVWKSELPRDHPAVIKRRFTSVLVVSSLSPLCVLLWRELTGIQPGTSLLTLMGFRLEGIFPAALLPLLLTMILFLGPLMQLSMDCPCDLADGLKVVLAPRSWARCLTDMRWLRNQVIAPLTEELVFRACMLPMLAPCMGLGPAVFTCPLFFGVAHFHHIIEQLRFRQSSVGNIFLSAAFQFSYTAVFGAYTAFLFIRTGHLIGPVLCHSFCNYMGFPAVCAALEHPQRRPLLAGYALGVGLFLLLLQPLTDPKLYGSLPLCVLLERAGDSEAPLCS
# [14] = target: Trypsin (Sus scrofa, UniProt P00761); test: porcine trypsin inhibitors, dose response, selectivity assay for Rce1 protease inhibitor project, biochemical, quenched peptide fluorescence, cherry-pick (AID 488789)
# [15] = test system: Streptococcus sp. 'group A'; test: growth inhibition of control SK(-) GAS strain, dose response, counter-screen for streptokinase expression inhibitor project, luminescence, kanamycin, BacTiterGlo, confirmation (AID 1900); type: functional, organism-based
# [16] = test system: Streptococcus; test: Group A Streptococcus viability loss, dose response, counter-screen for streptokinase expression inhibitor project, luminescence, BacTiterGlo (AID 1915); type: functional, organism-based;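 also: potency for reduction of bacterial viability or growth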
# [17] = target: T5, Streptokinase A (Streptococcus pyogenes serotype M1, UniProt P10520); test: S. pyogenes streptokinase expression inhibitors, potency, dose response, plasminogen activation absorbance, OD405 (AID 1914); type: functional, Streptococcus pyogenes M1 GAS;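 also: secreted streptokinase activity via plasminogen activation per viability signal from cell pellet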
# T5 sequence (P10520 whole entry): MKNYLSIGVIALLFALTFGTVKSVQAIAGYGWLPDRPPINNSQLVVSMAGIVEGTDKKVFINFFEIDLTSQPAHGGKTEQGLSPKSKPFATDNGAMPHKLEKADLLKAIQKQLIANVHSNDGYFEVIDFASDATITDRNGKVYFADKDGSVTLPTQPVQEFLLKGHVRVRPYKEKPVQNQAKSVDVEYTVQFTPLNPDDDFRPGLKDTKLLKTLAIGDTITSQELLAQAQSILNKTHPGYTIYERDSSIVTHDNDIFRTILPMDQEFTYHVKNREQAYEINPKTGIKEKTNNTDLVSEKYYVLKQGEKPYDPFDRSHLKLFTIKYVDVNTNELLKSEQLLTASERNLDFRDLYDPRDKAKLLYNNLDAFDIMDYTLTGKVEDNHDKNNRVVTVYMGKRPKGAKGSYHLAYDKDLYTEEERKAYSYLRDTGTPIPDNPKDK
# [18] = target: Glucose-6-phosphate 1-dehydrogenase (Homo sapiens, UniProt P11413); test: human G6PD enzyme inhibitors, dose response, selectivity assay for P. falciparum G6PD inhibitor project, biochemical, fluorescence (AID 504792); type: functional
# [19] = HeLa cell cytotoxicity, dose response, cytotoxicity control for MgcRacGAP inhibitor project (AID 624300); type: functional
# [20] = target: Hexokinase (Trypanosoma brucei, UniProt Q38C41); test: Confirmation assay for inhibitors of Trypanosoma brucei hexokinase 1-Analogue-first series. [Related pubchem assays (depositor defined):AID1430, AID1632, AID2516, AID2560, AID2579, AID2600, AID449725, AID492951]; type: functional
# [21] = target: 5-hydroxytryptamine receptor 5A (Homo sapiens, UniProt P47898); test: Counterscreen for agonists of OPRM1-OPRD1 heterodimerization: luminescence-based cell-based high throughput dose response assay to identify agonists of 5-hydroxytryptamine (serotonin) 5A receptor (HTR5A). [Related pubchem assays (depositor defined):AID504326, AID504355, AID504692, AID504904, AID504905]; type: functional
# [22] = target: Delta-type opioid receptor (Homo sapiens, UniProt P41143); test: Counterscreen for agonists of heterodimerization of the mu 1 (OPRM1) and delta 1 (OPRD1) opioid receptors: Luminescence-based cell-based high throughput dose response assay to identify agonists of OPRD1 homodimerization. [Related pubchem assays (depositor defined):AID504326, AID504355, AID504692, AID504904, AID504905]; type: functional
# [23] = target: Mu-type opioid receptor (Homo sapiens, UniProt P35372); test: Counterscreen for agonists of heterodimerization of the mu 1 (OPRM1) and delta 1 (OPRD1) opioid receptors: Luminescence-based cell-based high throughput dose response assay to identify agonists of OPRM1 homodimerization.; type: functional;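 also: U2OS cells expressing OPRM1 and beta-arrestin as split beta-galactosidase partners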
# [24] = target: T6, Short transient receptor potential channel 4 (Mus musculus, UniProt Q9QUQ5); test: mouse TRPC4 channel inhibitors, dose response, cell-based, HEK293 TRPC4/mu-opioid, Fluo-4 calcium (AID 434942); type: functional;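 also: potency of inhibitors blocking the TRPC4 calcium response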
# T6 sequence (Q9QUQ5 whole entry): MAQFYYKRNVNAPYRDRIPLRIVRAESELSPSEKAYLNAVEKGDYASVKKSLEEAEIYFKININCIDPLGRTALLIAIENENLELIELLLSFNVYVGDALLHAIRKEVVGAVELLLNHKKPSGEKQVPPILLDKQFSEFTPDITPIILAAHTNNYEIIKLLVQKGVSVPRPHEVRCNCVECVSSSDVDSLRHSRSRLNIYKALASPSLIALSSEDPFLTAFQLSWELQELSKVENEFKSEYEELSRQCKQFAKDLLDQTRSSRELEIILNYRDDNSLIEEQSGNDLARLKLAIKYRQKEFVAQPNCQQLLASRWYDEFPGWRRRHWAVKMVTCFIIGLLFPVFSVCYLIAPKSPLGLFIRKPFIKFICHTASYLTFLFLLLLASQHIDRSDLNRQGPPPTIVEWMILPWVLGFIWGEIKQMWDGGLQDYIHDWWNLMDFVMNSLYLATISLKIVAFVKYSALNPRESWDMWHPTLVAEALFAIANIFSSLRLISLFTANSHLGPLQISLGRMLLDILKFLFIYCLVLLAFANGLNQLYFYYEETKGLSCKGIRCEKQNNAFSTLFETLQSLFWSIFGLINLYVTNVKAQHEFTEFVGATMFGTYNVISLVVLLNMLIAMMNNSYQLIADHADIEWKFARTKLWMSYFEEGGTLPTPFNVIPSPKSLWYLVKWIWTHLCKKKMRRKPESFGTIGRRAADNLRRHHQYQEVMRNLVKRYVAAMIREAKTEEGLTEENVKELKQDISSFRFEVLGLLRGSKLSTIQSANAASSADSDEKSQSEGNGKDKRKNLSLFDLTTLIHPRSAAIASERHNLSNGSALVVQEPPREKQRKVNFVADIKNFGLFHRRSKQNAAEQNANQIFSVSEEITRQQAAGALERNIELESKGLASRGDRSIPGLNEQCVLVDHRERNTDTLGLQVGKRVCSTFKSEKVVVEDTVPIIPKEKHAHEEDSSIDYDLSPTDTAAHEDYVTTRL
# [25] = target: Bcl-2-like protein 10 (Homo sapiens, UniProt Q9HD36); test: displacers of TR3 peptide from Bcl-B, primary screen, selectivity assay for Bfl-1 inhibitor project, biochemical, fluorescence polarization, FITC-TR3 peptide (AID 748);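 also: fluorescence polarization from a fluorescein-labelled TR3 peptide binding purified Bcl-B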
# [26] = target: Nonstructural protein 1 (Influenza A virus, UniProt Q194T2); type: functional, Influenza A virus (A/California/07/2009(H1N1))
# G-protein coupled receptor 35, sequence (Q9HC97 whole entry): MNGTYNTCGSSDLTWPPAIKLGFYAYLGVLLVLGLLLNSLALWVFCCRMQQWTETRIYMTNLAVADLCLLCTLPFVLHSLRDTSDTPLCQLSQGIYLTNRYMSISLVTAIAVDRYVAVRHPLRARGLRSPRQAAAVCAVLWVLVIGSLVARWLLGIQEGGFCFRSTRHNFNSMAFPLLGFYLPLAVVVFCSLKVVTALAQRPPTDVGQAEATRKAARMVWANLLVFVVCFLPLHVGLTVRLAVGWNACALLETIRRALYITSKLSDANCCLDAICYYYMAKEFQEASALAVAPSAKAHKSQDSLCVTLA
# T1 sequence (Q00975 whole entry): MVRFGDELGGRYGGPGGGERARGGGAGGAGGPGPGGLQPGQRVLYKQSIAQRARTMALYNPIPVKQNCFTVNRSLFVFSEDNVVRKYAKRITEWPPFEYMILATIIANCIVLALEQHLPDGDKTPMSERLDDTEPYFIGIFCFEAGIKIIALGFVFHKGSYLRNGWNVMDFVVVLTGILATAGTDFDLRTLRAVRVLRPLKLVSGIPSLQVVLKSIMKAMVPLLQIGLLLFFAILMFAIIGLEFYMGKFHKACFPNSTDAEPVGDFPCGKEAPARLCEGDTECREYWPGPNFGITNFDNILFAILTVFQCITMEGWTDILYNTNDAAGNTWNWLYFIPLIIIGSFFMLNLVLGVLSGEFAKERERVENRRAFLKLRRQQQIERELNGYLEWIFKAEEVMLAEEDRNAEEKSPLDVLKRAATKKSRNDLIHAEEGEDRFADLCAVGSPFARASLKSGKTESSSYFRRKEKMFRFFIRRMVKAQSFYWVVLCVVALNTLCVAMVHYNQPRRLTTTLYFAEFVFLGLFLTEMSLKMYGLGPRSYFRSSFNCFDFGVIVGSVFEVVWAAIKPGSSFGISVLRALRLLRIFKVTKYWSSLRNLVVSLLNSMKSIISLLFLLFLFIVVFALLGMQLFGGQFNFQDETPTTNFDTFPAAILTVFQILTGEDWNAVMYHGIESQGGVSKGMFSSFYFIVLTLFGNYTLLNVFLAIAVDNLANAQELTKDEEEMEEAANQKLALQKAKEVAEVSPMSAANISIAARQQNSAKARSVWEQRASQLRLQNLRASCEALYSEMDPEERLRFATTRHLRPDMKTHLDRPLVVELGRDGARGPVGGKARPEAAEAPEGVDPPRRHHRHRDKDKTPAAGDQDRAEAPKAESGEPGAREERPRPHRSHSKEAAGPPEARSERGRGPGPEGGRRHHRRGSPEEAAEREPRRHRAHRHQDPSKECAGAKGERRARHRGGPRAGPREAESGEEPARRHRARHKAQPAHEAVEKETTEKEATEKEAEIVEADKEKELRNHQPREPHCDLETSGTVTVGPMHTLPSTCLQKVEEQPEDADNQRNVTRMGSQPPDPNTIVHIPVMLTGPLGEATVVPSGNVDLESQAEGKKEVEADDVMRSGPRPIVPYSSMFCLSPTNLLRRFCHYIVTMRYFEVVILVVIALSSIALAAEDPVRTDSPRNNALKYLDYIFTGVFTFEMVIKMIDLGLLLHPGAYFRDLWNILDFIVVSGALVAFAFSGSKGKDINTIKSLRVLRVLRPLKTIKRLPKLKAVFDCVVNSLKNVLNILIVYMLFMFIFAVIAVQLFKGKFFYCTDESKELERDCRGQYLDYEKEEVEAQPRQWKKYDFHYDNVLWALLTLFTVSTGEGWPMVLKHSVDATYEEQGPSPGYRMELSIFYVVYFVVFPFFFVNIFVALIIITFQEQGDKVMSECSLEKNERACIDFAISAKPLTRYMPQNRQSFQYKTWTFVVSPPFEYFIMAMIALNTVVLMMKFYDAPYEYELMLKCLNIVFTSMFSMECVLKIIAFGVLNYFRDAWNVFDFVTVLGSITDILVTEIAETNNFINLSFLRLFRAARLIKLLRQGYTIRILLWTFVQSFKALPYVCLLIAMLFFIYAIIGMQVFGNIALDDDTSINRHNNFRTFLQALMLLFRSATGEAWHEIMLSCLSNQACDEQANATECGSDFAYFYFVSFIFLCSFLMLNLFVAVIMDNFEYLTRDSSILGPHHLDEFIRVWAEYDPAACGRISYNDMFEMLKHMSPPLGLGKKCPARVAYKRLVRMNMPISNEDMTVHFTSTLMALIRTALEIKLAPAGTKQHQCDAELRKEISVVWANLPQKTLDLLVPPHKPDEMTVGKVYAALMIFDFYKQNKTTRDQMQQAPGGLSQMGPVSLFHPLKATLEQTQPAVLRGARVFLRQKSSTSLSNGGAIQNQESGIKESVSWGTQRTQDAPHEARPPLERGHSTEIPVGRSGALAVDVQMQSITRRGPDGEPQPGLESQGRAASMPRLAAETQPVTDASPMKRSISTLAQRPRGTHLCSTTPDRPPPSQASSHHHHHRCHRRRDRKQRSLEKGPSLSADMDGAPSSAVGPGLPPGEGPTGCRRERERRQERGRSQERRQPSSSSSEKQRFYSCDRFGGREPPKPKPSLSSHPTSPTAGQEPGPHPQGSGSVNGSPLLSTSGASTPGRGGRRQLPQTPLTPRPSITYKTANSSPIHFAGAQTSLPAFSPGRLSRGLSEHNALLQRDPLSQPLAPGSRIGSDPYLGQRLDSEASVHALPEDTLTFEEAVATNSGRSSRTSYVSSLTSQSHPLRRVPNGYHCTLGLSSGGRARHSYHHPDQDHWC
# T1 sequence (Q02410 whole entry): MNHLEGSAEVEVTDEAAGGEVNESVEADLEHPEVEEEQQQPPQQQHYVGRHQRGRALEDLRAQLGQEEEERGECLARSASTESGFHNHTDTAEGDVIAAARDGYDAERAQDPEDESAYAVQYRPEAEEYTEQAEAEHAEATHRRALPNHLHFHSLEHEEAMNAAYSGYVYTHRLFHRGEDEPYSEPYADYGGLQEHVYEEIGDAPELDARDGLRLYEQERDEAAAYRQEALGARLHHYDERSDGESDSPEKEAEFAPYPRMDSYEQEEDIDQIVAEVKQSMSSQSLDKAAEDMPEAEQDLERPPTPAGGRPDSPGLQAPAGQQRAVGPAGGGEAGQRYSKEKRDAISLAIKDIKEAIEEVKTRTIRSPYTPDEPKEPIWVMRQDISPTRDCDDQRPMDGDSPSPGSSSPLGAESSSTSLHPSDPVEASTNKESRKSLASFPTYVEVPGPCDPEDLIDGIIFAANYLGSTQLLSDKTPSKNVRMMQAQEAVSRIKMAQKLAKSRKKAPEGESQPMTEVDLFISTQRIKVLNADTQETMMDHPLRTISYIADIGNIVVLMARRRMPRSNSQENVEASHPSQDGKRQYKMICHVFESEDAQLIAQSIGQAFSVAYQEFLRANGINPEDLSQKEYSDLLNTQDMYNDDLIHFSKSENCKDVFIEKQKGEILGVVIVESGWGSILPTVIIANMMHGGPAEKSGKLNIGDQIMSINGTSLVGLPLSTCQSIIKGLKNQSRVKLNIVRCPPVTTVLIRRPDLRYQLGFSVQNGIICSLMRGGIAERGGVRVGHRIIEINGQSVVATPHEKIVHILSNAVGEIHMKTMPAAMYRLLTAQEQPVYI
# Polyadenylate-binding protein 1, sequence (P11940 whole entry): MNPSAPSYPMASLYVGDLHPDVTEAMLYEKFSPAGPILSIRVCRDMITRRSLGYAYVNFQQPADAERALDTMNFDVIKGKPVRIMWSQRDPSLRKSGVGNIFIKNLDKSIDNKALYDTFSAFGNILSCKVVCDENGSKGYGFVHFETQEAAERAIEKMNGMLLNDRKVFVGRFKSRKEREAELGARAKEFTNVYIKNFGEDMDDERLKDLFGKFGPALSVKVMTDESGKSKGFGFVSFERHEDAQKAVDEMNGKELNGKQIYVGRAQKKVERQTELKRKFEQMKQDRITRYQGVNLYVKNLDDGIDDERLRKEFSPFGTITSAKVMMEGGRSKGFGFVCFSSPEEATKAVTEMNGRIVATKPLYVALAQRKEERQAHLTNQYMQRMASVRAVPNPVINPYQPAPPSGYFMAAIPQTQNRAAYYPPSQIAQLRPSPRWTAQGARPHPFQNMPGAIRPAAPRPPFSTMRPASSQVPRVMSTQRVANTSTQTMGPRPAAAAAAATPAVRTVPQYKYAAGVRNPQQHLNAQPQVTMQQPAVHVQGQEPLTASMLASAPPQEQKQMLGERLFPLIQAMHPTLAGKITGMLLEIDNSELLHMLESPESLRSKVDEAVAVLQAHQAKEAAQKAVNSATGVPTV
# G-protein coupled receptor 55, sequence (Q9Y2T6 whole entry): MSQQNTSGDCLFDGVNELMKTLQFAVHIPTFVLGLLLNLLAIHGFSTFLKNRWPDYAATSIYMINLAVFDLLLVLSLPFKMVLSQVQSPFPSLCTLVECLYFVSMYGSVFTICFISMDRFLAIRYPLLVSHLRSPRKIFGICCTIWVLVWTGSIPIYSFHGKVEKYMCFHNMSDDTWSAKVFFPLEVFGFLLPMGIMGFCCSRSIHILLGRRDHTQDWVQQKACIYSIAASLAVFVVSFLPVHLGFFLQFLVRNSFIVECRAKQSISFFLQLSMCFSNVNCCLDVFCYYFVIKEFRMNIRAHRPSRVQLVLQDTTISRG
# Bcl-2-like protein 10, sequence (Q9HD36 whole entry): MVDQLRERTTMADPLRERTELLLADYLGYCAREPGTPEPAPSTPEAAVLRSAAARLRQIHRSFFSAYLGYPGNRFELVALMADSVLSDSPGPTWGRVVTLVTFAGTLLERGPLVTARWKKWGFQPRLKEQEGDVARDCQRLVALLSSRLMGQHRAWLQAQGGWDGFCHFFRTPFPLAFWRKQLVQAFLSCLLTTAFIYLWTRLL
smiles,measurement,setting,value
CN(C)c1ccc(/C=C2\NC(=S)N(Cc3ccccc3)C2=O)cc1,IC50,[1],0.651 µM (active)
Cc1cccc(NC(=S)NCc2ccco2)n1,IC50,[2],6.94 µM (active)
same,IC50,[3],> 50 µM (inactive)
N#C/C(=C/c1ccc(N2CCOCC2)o1)c1nc2ccccc2[nH]1,IC50,[1],2.41 µM (active)
same,IC50,[4],20.4 µM (active)
NC1=C(c2nc(-c3ccc(F)cc3)cs2)C(=O)CN1CCCN1CCOCC1,AC50,[5],15.8 µM (inconclusive)
same,AC50,[6],10 µM (inconclusive)
same,IC50,[7],9.02 µM (active)
same,AC50,[8],28.2 µM (inconclusive)
same,AC50,[9],28.2 µM (inconclusive)
O=C(CSc1ccc(-c2ccco2)nn1)NCc1ccccc1,IC50,[10],57 µM (active)
same,IC50,[11],> 100 µM (inactive)
COc1ccc(N=C2SC(C(=O)Nc3ccc(F)cc3)CC(=O)N2C)cc1 (configuration not stated),IC50,[10],> 100 µM (inactive)
same,IC50,[11],> 100 µM (inactive)
NC(=O)c1sc2nc(N3CCCCC3)c3c(c2c1N)CCCC3,CC50,[12],15.6 µM (active)
same,AC50,[13],7.04 µM (active)
same,AC50,[14],3.58 µM (active)
c1ccc(-c2noc(-c3ccccc3-c3ccccc3)n2)cc1,EC50,[15],11.8 µM (active)
same,EC50,[16],> 150 µM (not active)
same,IC50,[7],6.09 µM (active)
same,EC50,[17],21.5 µM (active)
O=c1c2cc(F)ccc2sn1-c1ccccc1Cl,IC50,[18],15.9 µM (active)
same,IC50,[4],35 µM (active)
same,CC50,[19],71.9 µM (active)
same,IC50,[20],2.33 µM (active)
O=C(Nc1cc(Cl)ccc1C(=O)O)c1ccc(-c2cccs2)cc1,IC50,[20],> 25 µM (inactive)
CC(=O)Nc1ccc(S(=O)(=O)NC2=C(N3CCN(Cc4ccccc4)CC3)C(=O)c3ccccc3C2=O)cc1,EC50,[21],> 92.4 µM (inactive)
same,EC50,[22],> 92.4 µM (inactive)
same,EC50,[23],> 92.4 µM (inactive)
same,EC50,[24],1.06 µM (active)
same,IC50,[25],77.9 µM (inactive)
same,IC50,[26],21.4 µM (active)
